Results on 12 molecules are retold here after patent publication US11603355B2, “Charged ion channel blockers and methods for use” (Nocion Therapeutics, Inc., priority 2019, dated 2023).

Data set [1] can be described thus: PAMPA membrane permeability assay. In kind it is in vitro ADME. The note with it: permeability coefficient, pH 7.4 buffer, GIT lipid, 4 hours incubation. Summed up:
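Passive diffusion across a GIT-lipid-painted artificial membrane at pH 7.4, with a 50 uM donor stock diluted from DMSO and a 4 h incubation. UV spectra of the donor, acceptor and reference plates were read, and the permeability coefficient was calculated from the AUCs, in 10^−6 cm/s.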
For orientation: In PAMPA a lipid-coated filter parts donor from acceptor wells.

The target of data set [2] is T1, NaV1.7 (Homo sapiens, UniProt Q15858).
T1 construct: expressed in transfected cells; host or cells: HEK293 (tetracycline-inducible)
T1 sequence (Q15858 whole entry): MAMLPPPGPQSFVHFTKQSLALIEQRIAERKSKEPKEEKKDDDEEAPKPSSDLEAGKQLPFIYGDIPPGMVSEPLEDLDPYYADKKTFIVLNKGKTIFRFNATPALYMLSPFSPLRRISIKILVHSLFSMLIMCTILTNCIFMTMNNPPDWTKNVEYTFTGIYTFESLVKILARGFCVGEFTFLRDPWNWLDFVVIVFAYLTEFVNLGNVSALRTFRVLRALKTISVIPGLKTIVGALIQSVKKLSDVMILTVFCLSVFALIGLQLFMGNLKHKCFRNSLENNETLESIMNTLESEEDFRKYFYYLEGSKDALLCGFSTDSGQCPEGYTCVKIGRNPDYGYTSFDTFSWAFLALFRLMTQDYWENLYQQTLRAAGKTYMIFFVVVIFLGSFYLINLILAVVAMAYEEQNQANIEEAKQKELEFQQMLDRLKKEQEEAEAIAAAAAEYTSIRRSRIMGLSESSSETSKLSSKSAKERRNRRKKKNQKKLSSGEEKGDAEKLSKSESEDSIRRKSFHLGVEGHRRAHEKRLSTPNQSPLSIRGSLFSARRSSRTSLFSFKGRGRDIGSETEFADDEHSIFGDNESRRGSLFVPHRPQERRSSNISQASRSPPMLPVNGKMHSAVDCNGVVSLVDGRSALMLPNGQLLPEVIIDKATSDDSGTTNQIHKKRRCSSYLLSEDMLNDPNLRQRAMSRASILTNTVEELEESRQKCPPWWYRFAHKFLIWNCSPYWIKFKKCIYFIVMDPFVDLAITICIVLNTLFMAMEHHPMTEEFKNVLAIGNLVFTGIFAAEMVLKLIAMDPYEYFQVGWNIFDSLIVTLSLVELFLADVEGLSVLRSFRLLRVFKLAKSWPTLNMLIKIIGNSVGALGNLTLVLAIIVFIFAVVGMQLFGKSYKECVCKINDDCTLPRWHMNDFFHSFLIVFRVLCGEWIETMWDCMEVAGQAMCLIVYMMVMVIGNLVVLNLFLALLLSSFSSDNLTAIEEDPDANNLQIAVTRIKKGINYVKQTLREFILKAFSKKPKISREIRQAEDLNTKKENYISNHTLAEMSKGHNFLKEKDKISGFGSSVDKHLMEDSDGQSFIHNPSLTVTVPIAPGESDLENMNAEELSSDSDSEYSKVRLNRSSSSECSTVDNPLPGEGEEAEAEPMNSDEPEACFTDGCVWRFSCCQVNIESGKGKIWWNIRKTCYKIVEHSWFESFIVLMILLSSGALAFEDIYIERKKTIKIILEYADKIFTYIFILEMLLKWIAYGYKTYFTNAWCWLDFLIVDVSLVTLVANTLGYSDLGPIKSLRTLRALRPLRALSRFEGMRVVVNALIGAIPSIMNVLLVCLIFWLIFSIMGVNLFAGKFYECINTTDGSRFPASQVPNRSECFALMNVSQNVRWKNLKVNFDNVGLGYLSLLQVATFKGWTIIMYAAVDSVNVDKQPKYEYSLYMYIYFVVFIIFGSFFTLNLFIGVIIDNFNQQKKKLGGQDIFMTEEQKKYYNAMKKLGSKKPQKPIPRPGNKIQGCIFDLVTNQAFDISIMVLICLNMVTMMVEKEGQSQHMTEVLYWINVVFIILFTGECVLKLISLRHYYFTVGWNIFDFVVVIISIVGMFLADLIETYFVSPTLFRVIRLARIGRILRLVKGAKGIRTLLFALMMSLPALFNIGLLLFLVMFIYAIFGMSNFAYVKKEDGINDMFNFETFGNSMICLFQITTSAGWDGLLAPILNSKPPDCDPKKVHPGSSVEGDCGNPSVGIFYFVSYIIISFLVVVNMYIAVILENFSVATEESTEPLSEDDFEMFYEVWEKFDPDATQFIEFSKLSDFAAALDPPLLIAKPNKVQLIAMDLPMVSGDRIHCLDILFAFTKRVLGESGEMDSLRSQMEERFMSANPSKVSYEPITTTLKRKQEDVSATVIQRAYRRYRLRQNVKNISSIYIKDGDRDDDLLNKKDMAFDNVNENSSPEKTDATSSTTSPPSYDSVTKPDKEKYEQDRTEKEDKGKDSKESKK
Description: Automated patch clamp (Qube 384), external block of NaV1.7. The note with it: IC50, compound in external solution, HEK293 cells, read-out: Nav1.7 Extracellular Inhibition. The class given is cell-based. As to the method:
(§1) NaV1.7 was expressed in HEK293 cells upon induction with tetracycline. Cells were cultured in DMEM containing 10% dialyzed Fetal Bovine Serum (VWR, Radnor, Pa.), 1% Glutamax (VWR, Radnor, Pa.), 1% Penicillin-Streptomycin (VWR, Radnor, Pa.), 100 mg/L Hygromycin (Thermo Fisher Scientific, Waltham, Mass. and 5 mg/L Blasticidin (Alfa Aesar, Haverhill, Mass.). Cells were grown and maintained at 37° C. in a humidified environment containing 10% CO2 in air. Cells were detached from the culture flask for passage and harvested using 0.05% Trypsin-EDTA (Thermo Fisher Scientific, Waltham, Mass.). To induce NaV1.7, cells were induced with tetracycline (0.1-1 μg/mL, IBI Scientific, Peosta, Iowa) the day before recording.
(§2) Before experiments, cells were washed with DPBS (VWR, Radnor, Pa.), digested with Detachin (VWR Radnor, Pa.) and then triturated 10 times in CHO Serum-Free Media (VWR Radnor, Pa.) to resuspend the cells and to break apart cell aggregates. Cells were counted and the final concentration was set at 2-5 million cells per mL.
(§3) The intracellular solution contained the following: 140 mM CsF, 1 mM/5 mM EGTA/CsOH, 10 mM HEPES, 10 mM NaCl, adjusted to pH 7.3 with CsOH, and osmolality to 320 with OSM solution. The external solution contained the following: 145 mM NaCl, 4 mM KCl, 1 mM MgCl2, 2 mM CaCl2), 10 mM HEPES, 10 mM Glucose, adjusted to pH 7.4 with CsOH and osmolality to 305 with OSM solution. The OSM solution was a normal Ringer solution containing (in mM) NaCl 155, HEPES 10, sucrose, KCl 3.5, CaCl2) 1.5, MgCl2 1 adjusted to pH 7.4 with NaOH. All chemicals are from Sigma-Aldrich, St. Louis, Mo. In order to test the degree of internal block by test compounds, the compounds were dissolved in internal solution at the indicated test concentration. […] In order to test the degree of external block by test compounds the compounds were dissolved in external solution at the indicated test concentration.
(§4) Automated Patch Clamps were performed on Qube 384 (Sophion Bioscience, Woburn Mass.) with multihole Qchips at a temperature setting of 22 degrees. The whole cells configuration was formed with default Qube seal and break-in parameter. The membrane potential was held at −100 mV before the voltage protocol began. Two voltage protocols were followed.
(§5) Step 1: Cells were held at −100 mV with a depolarized pulse to −20 mV for 10 ms, the interval was set at 5 s. Currents were corrected by default leak subtraction from every pulse. The duration was set at 5 mins.
(§6) Step 2: Cells were held at −100 mV with a depolarized pulse to −20 mV for 10 ms. The frequency was 5 Hz. Currents were corrected by leak subtraction calculated before step 2. The duration was set at 4 mins.
After Step 2, the external solution was changed with solutions containing test compounds. Qchips were held at −100 mV without pulsing. The total solution switching time was 8 minutes. After the external solution exchange, cells were recorded using the same procedure as step 2 for 10 minutes.
Data analysis was performed by Sophion Analyzer. Data were corrected with control cells (Non-Drug). The IC50 data were plotted with DR-plots/Hill function (a dose-response plot with a Hill fit). Representative examples of the invention were tested for extracellular inhibition of NaV 1.7 in the automated patch clamp assay. Activity Range is reported as IC50: “++++” ([…], “+++” (1-3 μM), “++” ([…]) or “+” (>10 μM). The results are presented below.
A general note: In patch-clamp work, channel activity is measured electrically.

The target in data set [3] is T1, NaV1.7. Description: Automated patch clamp (Qube 384), internal block of NaV1.7. The class given is cell-based. The note with it: IC50, compound in internal solution, HEK293 cells, read-out: Nav1.7 Intracellular Inhibition. As to the method:
as §1, §2, §3, §4, §5, §6
After Step 2, the Qchip was removed from the recording chamber. The internal solution was changed with solutions containing test compounds. Qchips were held at −100 mV without pulsing after being replaced in the recording chamber. The total solution switching time was 8 minutes. After the internal solution exchange, Cells were recorded and step 2 for repeated for 10 minutes.
Data analysis was performed by Sophion Analyzer. Cells were filtered with minimum 50 MOhm seal resistance and minimum 5 nA starting current. The rundown of the currents was corrected with control cells (Non-Drug). The remaining was calculated by averaging last 3 points in the end of experiments. The base line was calculated as the average of last 3 points of Step 2.
IC50 curves were plotted with DR-plots/Hill function (a dose-response plot with a Hill fit).
Representative examples of the invention were tested for intracellular inhibition of NaV 1.7 in the automated patch clamp assay. Activity Range is reported as IC50: “++++” (<0.3 μM), “+++” (0.3-1 μM), “++” (1-3 μM) or “+” (3-10 μM).

Data set [4] concerns the target T1, NaV1.7. Description: Manual patch clamp, internal block of NaV1.7 current. In kind it is cell-based. The note with it: compound in internal solution, HEK293 cells, read-out: Nav1.7 Intracellular Inhibition; for inhibition at 3 µM: % inhibition at 3 μM test concentration; for inhibition at 10 µM: % inhibition at 10 μM test concentration. Summed up:
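Whole-cell recordings at room temperature in tetracycline-induced HEK293 cells, compound in CsCl internal solution (pH 7.2), held at −100 mV with 10 ms steps to −20 mV. Four 30 s 5 Hz trains after 5 min baseline; fraction of peak inward current remaining computed as Itest/Ibaseline.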

Data set [5] addresses T1, NaV1.7. The experiment in a line: Manual patch clamp, external block of NaV1.7 current. In kind it is cell-based. The note with it: % inhibition at 10 μM test concentration, compound in external solution, HEK293 cells, read-out: Nav1.7 Extracellular Inhibition. The method, then:
Representative compounds of the invention were synthesized according to the described methods and tested for the ability to inhibit voltage-gated sodium channels.
as §1, with “recording and plated onto 24-well plates. Cells were washed with DPBS (VWR, Radnor, Pa.), trypsinized and then triturated five times in 10 mL of growth media to break apart cell aggregates. For one 24-well plate, 2 mL of cell suspension was mixed with 23 mL of fresh growth media and 0.1-1 μg/mL tetracycline added. 1 ml of mixed media with cells was then added to each well of a 24-well plate, with a 12 mm coverslip already placed in the bottom of the well. Cells were then incubated in 37° C. and 10% CO2 overnight.” for “recording.”
The intracellular solution contained the following (in mM) CsCl 135, NaCl 10, EGTA 10, HEPES 10, MgCl2 2, adjusted to pH 7.2 with CsOH. The external solution was a normal Ringer solution containing (in mM) NaCl 155, HEPES 10, glucose 10, KCl 3.5, CaCl2 1.5, MgCl2 1 adjusted to pH 7.4 with NaOH. CsCl is from Alfa Aesar, Haverhill, Mass. All other chemicals are from Sigma-Aldrich, St. Louis, Mo. In order to test the degree of internal block by test compounds the compounds were dissolved in internal solution at the indicated test concentration. […] In order to test the degree of external block by test compounds the compounds were dissolved in external solution at the indicated test concentration.
18-24 hours after cells were induced with tetracycline, coverslips were placed into a chamber filled with Normal Ringer solution at room temperature and the chamber placed on a microscope. Pipettes were pulled from borosilicate glass on a P97 puller (Sutter Instrument, Novato, Calif.) and polished with a MF-830 Microforge (Narishige International USA, Inc., Amityville, N.Y.) to have a resistance of 1.5-2.5 MΩ when filled with CsCl internal solution at room temperature. Healthy cells (those that are round and translucent with no visible blemishes) were chosen for seal formation. A seal was formed between the pipette and the cell, and a brief pulse of suction was used to “break in” and establish the whole-cell configuration. The membrane potential was held at −100 mV before the voltage protocol began. Only cells with series resistance between 1.5-5 MΩ were retained for analysis. The voltage protocol was as follows: Cells were held at −100 mV for 12 ms followed by a hyperpolarizing step to −105 mV for 12 ms to monitor the leak. Cells were then stepped back to −100 mV for 40 ms. Cells were then depolarized to −20 mV for 10 ms and then returned to −100 mV for 26 ms.
Once the recording was started, the voltage protocol was run at 30 second intervals for 5 minutes to get a stable baseline. This is followed by 5 Hz stimulation of the same voltage protocol run until the end of experiment. […] The test compound is added for 5 minutes before washing out with normal Ringer's solution. Currents were recorded using PatchMaster software with Heka EPC10 (HEKA Electronics, Lambrecht, Germany). Only cells with inward current amplitudes at −20 mV between 400 pA and 4 nA were accepted. In addition, cells having leak currents greater than 10% of their current amplitudes were discarded. […]

For the molecule `Cc1cccc(C)c1NC(=O)C[N+]1(Cc2ccccc2)CCCC(C(=O)NCC(C)C)C1.[Br-]` (stereo not drawn) [Compound 58A], the “PAMPA (10^−6 cm/s)” value in data set [1] is on record as “+ (“+” (<0.1 10^−6 cm/s))”. Besides, the IC50 lay within 3 to 10 µM in data set [2] and 1 to 3 µM in data set [3].

`Cc1cccc(C)c1NC(=O)C[N+]1(Cc2ccccc2)CCCC(C(=O)N2CCCCCC2)C1` (stereo not drawn) [Compound 64A]: in data set [1], the “PAMPA (10^−6 cm/s)” value was “+ (“+” (<0.1 10^−6 cm/s))”. The IC50 in data set [2] is 3 to 10 µM; in data set [3], 1 to 3 µM.

The term inhibition denotes the percentage by which the read-out fell short of the control. For `Cc1cccc(C)c1NC(=O)C[N+]1(Cc2ccccc2)CCCCC1` [Compound 4A, 1-benzyl-1-(2-((2,6-dimethylphenyl)amino)-2-oxoethyl)piperidin-1-ium bromide], the inhibition at 3 µM in data set [4] was 70 to 90%. For the same molecule, the inhibition at 10 µM in data set [4] is 70 to 95%; in data set [5], under 40%.

Take `Cc1cccc(C)c1N1CCCC([N+]2(Cc3ccccc3)CCCCC2)C1=O` (stereo not drawn) [Compound 92A]: the IC50 in data set [2] was over 10 µM; in data set [3], 1 to 3 µM.

Turning to `CCc1cccc(C)c1NC(=O)C[N+]1(Cc2ccccc2)CCCCCC1` [Compound 70A], the inhibition at 3 µM in data set [4] was over 90%. Also, in data set [5], the inhibition at 10 µM lay within 40 to 70%. Besides, the IC50 in data set [3] lay in the range of 0.3 to 1 µM.

On to `CCC(C(=O)Nc1c(C)cccc1C)[N+]1(Cc2ccccc2)CCCCC1.[Br-]` (stereo not drawn) [Compound 6A, 1-benzyl-1-(1-((2,6-dimethylphenyl)amino)-1-oxobutan-2-yl)piperidin-1-ium bromide], for which, in data set [4], the inhibition at 3 µM fell in the range of 70 to 90% and the inhibition at 10 µM was in the range of 70 to 95%. Moreover, the inhibition at 10 µM in data set [5] is under 40%. Moreover, the “PAMPA (10^−6 cm/s)” value in data set [1] is listed as “+ (“+” (<0.1 10^−6 cm/s))”.

For the molecule `Cc1cccc(C)c1OC(=O)C[N+]1(Cc2ccccc2)CCCCCC1` [Compound 83A, 1-benzyl-1-(2-(2,6-dimethylphenoxy)-2-oxoethyl) azepan-1-ium 2,2,2-trifluoroacetate], the IC50 was 1 to 3 µM in data set [2] and 0.3 to 1 µM in data set [3].

Take `CC[N+](CC)(CCS(=O)(=O)c1c(C)cccc1C)Cc1ccccc1` [Compound 87A, N-benzyl-2-((2,6-dimethylphenyl)sulfonyl)-N, N-diethylethan-1-aminium bromide]: the results for the IC50 in data set [2] and in data set [3] were over 10 µM and 3 to 10 µM, respectively.

In the case of `CCC(C(=O)Nc1c(C)cccc1C)[N+]1(Cc2ccccc2F)CCCCC1` (stereo not drawn) [Compound 9A], the inhibition at 3 µM in data set [4] lay in the range of 70 to 90%. In addition, the figures for the inhibition at 10 µM in data set [4] and in data set [5] were over 95% and under 40%, respectively. Also, in data set [1], the “PAMPA (10^−6 cm/s)” value was “+ (“+” (<0.1 10^−6 cm/s))”.

As to `Cc1cccc(C)c1NC(=O)C[N+]1(Cc2ccccc2)CCCCCC1.[Br-]` [Compound 3A, 1-benzyl-1-(2-((2,6-dimethylphenyl)amino)-2-oxoethyl) azepan-1-ium bromide], in data set [4], the inhibition at 3 µM is over 90% and the inhibition at 10 µM was over 95%. Besides, the inhibition at 10 µM in data set [5] is 40 to 70%. Besides, in data set [1], the “PAMPA (10^−6 cm/s)” value is recorded as “+ (“+” (<0.1 10^−6 cm/s))”.

Consider `Br.CCCCOC(=O)C1CCC[N+](CC(=O)Nc2c(C)cccc2C)(Cc2ccccc2)C1` (stereo not drawn) [Compound 49A], for which the “PAMPA (10^−6 cm/s)” value in data set [1] is “+ (“+” (<0.1 10^−6 cm/s))”. For the same molecule, the IC50 in data set [2] was in the range of 3 to 10 µM; in data set [3], 1 to 3 µM.

In the case of `Cc1cccc(C)c1NC(=O)C[N+]1(Cc2ccccc2)CCCC(C(=O)OC2CCCCC2)C1.[Br-]` (stereo not drawn) [Compound 51A], the “PAMPA (10^−6 cm/s)” value in data set [1] is “+ (“+” (<0.1 10^−6 cm/s))”. The IC50 in data set [2] and in data set [3] was 3 to 10 µM throughout.
